From US11066369B2, “N-(pyridin-2-yl)pyridine-sulfonamide derivatives and their use in the treatment of disease” (Novartis AG, priority 2016, dated 2021) come the findings set out here.

Counter-ions that a name gives are not always drawn.

Assay [1] has as its target T1, delF508-CFTR (Homo sapiens, UniProt P13569, DEL508-508).
T1 construct: functional activity of the CFTR channel (Chloride ion transport) in patient derived primary human bronchial epithelial cells; host or cells: patient-derived primary human bronchial epithelial cells (delF508-CFTR)
Kind of assay: Measurement of delF508-CFTR functional activity in primary human bronchial epithelial cells (HBECs) using Multi-Transepithelial Clamp Circuit (MTECC-24) assay. The class given is cell-based. The conditions noted are these: primary CF HBECs; for MTECC24 CFHBEC- Amax %: test compound added 24h before assay plus potentiator, relative to reference combination (2 μM corrector + 0.5 μM potentiator); for EC50: test compound added 24h before assay, in the presence of potentiator, mean of at least two replicates, read-out: MTECC24 CFHBEC- EC50. Summed up: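 Patient-derived primary delF508-CFTR HBECs, differentiated at air-liquid interface ~2 weeks, treated basolaterally with compound for 24 h, then apical and basolateral compound in HEPES pH 7.4 assay medium. Equivalent short-circuit current (Ieq) recorded on MTECC-24 with sequential amiloride, forskolin, potentiator and INH-172; normalized to 0.1% DMSO, EC50 from curve fit.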

In assay [2] the target is T2, horseradish peroxidase (HRP) tagged delF508-CFTR (Homo sapiens, UniProt P13569, DEL508-508).
T2 construct: expressed in transfected cells
Kind of assay: Measurement of delF508-CFTR-HRP surface expression in CFBE41o- cells.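 On DelF508-CFTR-HRP Amax %: percent efficacy relative to reference corrector lumacaftor.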 The class given is cell-based. Particulars: delF508-CFTR-HRP surface expression, CFBE41o- cells; for Emax: read-out: DelF508-CFTR-HRP Amax %; for EC50: read-out: DelF508-CFTR-HRP EC50. The essentials:
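CFBE41o- bronchial epithelial cells stably expressing delF508-CFTR with HRP in the fourth extracellular loop; expression induced 48h with 500 ng/mL doxycycline, then compounds added (top 10 μM, 10-point 3-fold series, ≤0.5% DMSO) for 24h at 37° C. Surface HRP measured by luminescence with cell-impermeant substrate; EC50 from logistic fit of triplicates, plate-normalized to lowest concentration; efficacy also relative to a reference corrector.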

T1 sequence (P13569 with tags, fused parts or gaps DEL508-508): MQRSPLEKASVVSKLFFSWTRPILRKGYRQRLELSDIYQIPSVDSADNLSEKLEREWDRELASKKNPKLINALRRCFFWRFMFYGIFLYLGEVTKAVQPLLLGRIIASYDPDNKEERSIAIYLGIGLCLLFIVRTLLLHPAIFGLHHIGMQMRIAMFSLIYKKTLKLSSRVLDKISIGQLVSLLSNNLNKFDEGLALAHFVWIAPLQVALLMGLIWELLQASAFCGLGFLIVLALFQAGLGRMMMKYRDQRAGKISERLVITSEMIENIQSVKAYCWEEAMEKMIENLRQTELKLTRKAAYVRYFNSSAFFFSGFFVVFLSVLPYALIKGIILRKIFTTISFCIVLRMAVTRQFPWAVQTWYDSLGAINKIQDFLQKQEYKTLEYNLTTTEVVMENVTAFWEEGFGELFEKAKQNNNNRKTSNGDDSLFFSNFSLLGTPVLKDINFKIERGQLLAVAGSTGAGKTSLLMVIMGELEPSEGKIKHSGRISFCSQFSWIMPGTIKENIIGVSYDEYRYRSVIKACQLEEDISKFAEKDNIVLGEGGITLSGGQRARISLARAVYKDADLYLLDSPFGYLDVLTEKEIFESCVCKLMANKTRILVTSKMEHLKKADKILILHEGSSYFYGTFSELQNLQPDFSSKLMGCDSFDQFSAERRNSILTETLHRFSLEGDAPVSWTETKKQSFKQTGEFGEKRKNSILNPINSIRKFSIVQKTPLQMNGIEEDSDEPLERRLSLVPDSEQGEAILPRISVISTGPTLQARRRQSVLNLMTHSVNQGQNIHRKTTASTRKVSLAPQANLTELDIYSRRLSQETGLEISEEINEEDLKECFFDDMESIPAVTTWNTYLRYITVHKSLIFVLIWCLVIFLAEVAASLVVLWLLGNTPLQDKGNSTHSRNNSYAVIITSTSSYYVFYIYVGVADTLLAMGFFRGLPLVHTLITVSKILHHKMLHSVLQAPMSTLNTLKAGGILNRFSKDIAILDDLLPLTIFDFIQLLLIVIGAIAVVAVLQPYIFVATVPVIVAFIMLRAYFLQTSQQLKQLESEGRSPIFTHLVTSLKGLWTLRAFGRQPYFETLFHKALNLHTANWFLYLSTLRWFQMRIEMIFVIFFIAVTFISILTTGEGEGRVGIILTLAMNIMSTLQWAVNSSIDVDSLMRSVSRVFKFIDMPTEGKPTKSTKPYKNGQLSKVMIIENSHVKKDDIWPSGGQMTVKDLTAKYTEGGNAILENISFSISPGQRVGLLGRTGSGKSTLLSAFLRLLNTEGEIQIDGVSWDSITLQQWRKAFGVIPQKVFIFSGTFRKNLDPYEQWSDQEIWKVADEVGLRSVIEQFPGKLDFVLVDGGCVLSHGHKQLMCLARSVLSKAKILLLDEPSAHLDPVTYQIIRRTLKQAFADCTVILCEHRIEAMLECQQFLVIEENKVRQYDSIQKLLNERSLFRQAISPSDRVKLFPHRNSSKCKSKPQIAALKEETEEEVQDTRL
T2 sequence (P13569 with tags, fused parts or gaps DEL508-508): as above

Take `O=S(=O)(Nc1ccc(C(F)(F)F)c(-c2ccccc2C2CC2)n1)c1cccc(N2CCNCC2)n1` [Example 148, N-(6-(2-cyclopropylphenyl)-5-(trifluoromethyl)pyridin-2-yl)-6-(piperazin-1-yl)pyridine-2-sulfonamide]: in assay [1], the “MTECC24 CFHBEC- Amax %” value is reported as 74.1% and the EC50 (as a rule, the midpoint of the concentration-response curve) was determined as 85.4 nM. Besides, in assay [2], the Emax amounted to 363% and the EC50 was found to be 2460 nM.

In the case of `Cc1cccc(C)c1-c1nc(NS(=O)(=O)c2cccc(O[C@H]3CC[C@H](C(=O)O)CC3)n2)ccc1Cl` [Example 130, (1r,4r)-4-((6-(N-(5-chloro-6-(2,6-dimethylphenyl)pyridin-2-yl)sulfamoyl)pyridin-2-yl)oxy)cyclohexane-1-carboxylic Acid], in assay [1], the “MTECC24 CFHBEC- Amax %” value is 37.9% and the EC50 worked out at 84.1 nM. Also, in assay [2], the Emax stood at 157% and the EC50 came out at 2920 nM.

`Cc1c(F)cccc1-c1nc(NS(=O)(=O)c2cccc(N3CCNCC3)n2)ccc1C(F)(F)F` [Example 151, N-(6-(3-Fluoro-2-Methylphenyl)-5-(Trifluoromethyl)Pyridin-2-yl)-6-(Piperazin-1-yl)Pyridine-2-Sulfonamide Hydrochloride]: in assay [1], the “MTECC24 CFHBEC- Amax %” value was determined as 75.3% and the concentration for a half-maximal effect (EC50) was 95.6 nM. Besides, in assay [2], the Emax worked out at 187% and the EC50 stood at 3690 nM.

On to `Cc1ccc(F)cc1-c1nc(NS(=O)(=O)c2cccc(N3C[C@@H](C)N[C@@H](C)C3)n2)ccc1C(F)(F)F` [Example 178, 6-((3S,5R)-3,5-dimethylpiperazin-1-yl)-N-(6-(5-fluoro-2-methylphenyl)-5-(trifluoromethyl)pyridin-2-yl)pyridine-2-sulfonamide Hydrochloride], for which, in assay [1], the “MTECC24 CFHBEC- Amax %” value was 66.3% and the concentration giving a half-maximal response (EC50) amounted to 209 nM. Moreover, in assay [2], the Emax was 231% and the EC50 is 1150 nM.

For `Cc1ccccc1-c1nc(NS(=O)(=O)c2cccc(N[C@H]3CCOC[C@H]3O)n2)ccc1C(F)(F)F` (single isomer, unassigned) [Example 277], in assay [1], the “MTECC24 CFHBEC- Amax %” value was 85.1% and the EC50 came out at 4.6 nM. Besides, in assay [2], the Emax was found to be 817% and the EC50 was determined as 2010 nM.

Turning to `Cc1ccc(F)cc1-c1nc(NS(=O)(=O)c2cccc(N3CCN4C[C@@H](F)CC4[C@@H]3C)n2)ccc1Cl` (stereo partly drawn) [Example 135, N-(5-chloro-6-(5-fluoro-2-methylphenyl)pyridin-2-yl)-6-((1S,7S)-7-fluoro-1-methylhexahydropyrrolo[1,2-a]pyrazin-2(1H)-yl)pyridine-2-sulfonamide], in assay [1], the “MTECC24 CFHBEC- Amax %” value was 95.3% and the EC50 was determined as 13 nM. Moreover, in assay [2], the Emax stood at 804% and the EC50 is 3440 nM.

With `Cc1ccc(OC(F)(F)F)cc1-c1nc(NS(=O)(=O)c2cccc(N)n2)ccc1Cl` [Example 89, 6-amino-N-(5-chloro-6-(2-methyl-5-(trifluoromethoxy)phenyl)pyridin-2-yl)pyridine-2-sulfonamide], in assay [1], the “MTECC24 CFHBEC- Amax %” value is reported as 35.7% and the EC50 worked out at 39.9 nM. In assay [2], the Emax was 91.5% and the EC50 amounted to 3860 nM.

With `Nc1cccc(S(=O)(=O)Nc2ccc(C(F)(F)F)c(-c3ccccc3C(F)(F)F)n2)n1` [Example 18, 6-amino-N-(5-(trifluoromethyl)-6-(2-(trifluoromethyl)phenyl)pyridin-2-yl)pyridine-2-sulfonamide], in assay [1], the “MTECC24 CFHBEC- Amax %” value came out at 65.5% and the 50% effective concentration (EC50) worked out at 7.9 nM. In assay [2], the Emax turned out to be 505% and the EC50 was determined as 1890 nM.

As to `Cc1ccccc1-c1nc(NS(=O)(=O)c2cccc(NC3CCNCC3)n2)ccc1C(F)(F)F` [Example 112, 6-(piperidin-4-ylamino)-N-(6-(o-tolyl)-5-(trifluoromethyl)pyridin-2-yl)pyridine-2-sulfonamide Hydrochloride], in assay [1], the “MTECC24 CFHBEC- Amax %” value was found to be 55.0% and the EC50 is 495 nM. In assay [2], the Emax was determined as 172% and the EC50 came to 4050 nM.

As for `Cc1ccccc1-c1nc(NS(=O)(=O)c2cccc(N[C@@H]3CCNC[C@@H]3F)n2)ccc1C(F)(F)F` (relative stereo) [Example 117, 6-(((3S,4R)-3-fluoropiperidin-4-yl)amino)-N-(6-(o-tolyl)-5-(trifluoromethyl)pyridin-2-yl)pyridine-2-sulfonamide Hydrochloride], in assay [1], the “MTECC24 CFHBEC- Amax %” value is reported as 74.7% and the EC50 amounted to 33.1 nM. Further, in assay [2], the Emax was 264% and the EC50 is 2780 nM.

For `Cc1cc(F)ccc1-c1nc(NS(=O)(=O)c2cccc(N3CC(C)(O)C3)n2)ccc1C(F)(F)F` [Example 217, N-(6-(4-fluoro-2-methylphenyl)-5-(trifluoromethyl)pyridin-2-yl)-6-(3-hydroxy-3-methylazetidin-1-yl)pyridine-2-sulfonamide], in assay [1], the “MTECC24 CFHBEC- Amax %” value is 66.3% and the EC50 was 38 nM. In addition, in assay [2], the Emax was 157% and the EC50 stood at 308 nM.

As to `Nc1cc(S(=O)(=O)Nc2ccc(Cl)c(-c3ccccc3C(F)(F)F)n2)ccn1` [Example 61, 2-amino-N-(5-chloro-6-(2-(trifluoromethyl)phenyl)pyridin-2-yl)pyridine-4-sulfonamide], in assay [1], the “MTECC24 CFHBEC- Amax %” value was found to be 74.0% and the EC50 was 103 nM. In assay [2], the Emax was 251% and the EC50 was 2620 nM.

`CCc1ccccc1-c1nc(NS(=O)(=O)c2cccc(N3CCCC(C)(C(=O)O)C3)n2)ccc1C(F)(F)F` (centres unmarked) [Example 371, 1-(6-(N-(6-(2-ethylphenyl)-5-(trifluoromethyl)pyridin-2-yl)sulfamoyl)pyridin-2-yl)-3-methylpiperidine-3-carboxylic Acid]: in assay [1], the “MTECC24 CFHBEC- Amax %” value was 254.3% and the EC50 stood at 1.97 nM. In assay [2], the Emax was 962% and the EC50 is 1130 nM.

For `Cc1ccc(F)cc1-c1nc(NS(=O)(=O)c2cccc(N3CCC(C)(C(=O)O)CC3)n2)ccc1Cl` [Example 257, 1-(6-{[5-chloro-6-(5-fluoro-2-methylphenyl)pyridin-2-yl]sulfamoyl}pyridin-2-yl)-4-methylpiperidine-4-carboxylic Acid], in assay [1], the “MTECC24 CFHBEC- Amax %” value worked out at 63.0% and the EC50 came out at 21.8 nM. Besides, in assay [2], the Emax was determined as 198% and the EC50 is 1350 nM.

In the case of `Cc1ccccc1-c1nc(NS(=O)(=O)c2cccc(N3CCC(C)(C(=O)O)CC3)n2)ccc1C(F)(F)F` [Example 264, 4-methyl-1-(6-(N-(6-(o-tolyl)-5-(trifluoromethyl)pyridin-2-yl)sulfamoyl)pyridin-2-yl)piperidine-4-carboxylic Acid], in assay [1], the “MTECC24 CFHBEC- Amax %” value is listed as 67.2% and the EC50 came to 11.7 nM. Also, in assay [2], the Emax turned out to be 448% and the EC50 worked out at 2600 nM.

Turning to `Cc1cccc(C)c1-c1nc(NS(=O)(=O)c2cccc(NC3CCOCC3)n2)ccc1Cl` [Example 271, N-[5-chloro-6-(2,6-dimethylphenyl)pyridin-2-yl]-6-[(oxan-4-yl)amino]pyridine-2-sulfonamide], in assay [1], the “MTECC24 CFHBEC- Amax %” value was determined as 66.6% and the EC50 was 8.8 nM. In addition, in assay [2], the Emax is 837% and the EC50 worked out at 1080 nM.

`Cc1ccc(C(F)(F)F)cc1-c1nc(NS(=O)(=O)c2cccc(N3CCNCC3)n2)ccc1Cl` [Example 169, N-(5-chloro-6-(2-methyl-5-(trifluoromethyl)phenyl)pyridin-2-yl)-6-(piperazin-1-yl)pyridine-2-sulfonamide Hydrochloride]: in assay [1], the “MTECC24 CFHBEC- Amax %” value is on record as 40.5% and the EC50 worked out at 144 nM. Also, in assay [2], the Emax stood at 182% and the EC50 amounted to 4000 nM.

Consider `O=S(=O)(Nc1ccc(C(F)(F)F)c(-c2ccccc2Cl)n1)c1cccc(N2CCNCC2)n1` [Example 150, N-(6-(2-chlorophenyl)-5-(trifluoromethyl)pyridin-2-yl)-6-(piperazin-1-yl)pyridine-2-sulfonamide hydrochloride], for which, in assay [1], the “MTECC24 CFHBEC- Amax %” value is listed as 64.4% and the EC50 turned out to be 97.3 nM. In assay [2], the Emax worked out at 180% and the EC50 is 3510 nM.

In the case of `Cc1ccc(F)cc1-c1nc(NS(=O)(=O)c2cccc(N3CCN4C[C@@H](F)C[C@@H]4C3)n2)ccc1Cl` [Example 134, N-(5-chloro-6-(5-fluoro-2-methylphenyl)pyridin-2-yl)-6-((7S,8aR)-7-fluorohexahydropyrrolo[1,2-a]pyrazin-2(1H)-yl)pyridine-2-sulfonamide], in assay [1], the “MTECC24 CFHBEC- Amax %” value is 112.7% and the 50% effective concentration (EC50) worked out at 19 nM. Further, in assay [2], the Emax was determined as 906% and the EC50 amounted to 1980 nM.

For the compound `Cc1c(F)cccc1-c1nc(NS(=O)(=O)c2cccc(N3CC(O)C3)n2)ccc1C(F)(F)F` [Example 216, N-(6-(3-fluoro-2-methylphenyl)-5-(trifluoromethyl)pyridin-2-yl)-6-(3-hydroxyazetidin-1-yl)pyridine-2-sulfonamide], in assay [1], the “MTECC24 CFHBEC- Amax %” value is listed as 82.1% and the EC50 turned out to be 4.8 nM. Besides, in assay [2], the Emax is 446% and the EC50 was determined as 1710 nM.
